Test results from article PMC7018803, “A randomized, placebo-controlled, phase 1 study to evaluate the effects of TAK-063 on ketamine-induced changes in fMRI BOLD signal in healthy subjects” (Psychopharmacology, 2019).

Columns and labels:
[1] = Pharmacokinetics of TAK-063 in plasma after single oral dose; format: in vivo, human
Description: (§1) The Statistics Department at Takeda Development Center Americas, Inc., generated a randomization schedule before the start of the study, and this randomization schedule maintained the investigational drug blind. During randomization, subjects were assigned a four-digit randomization sequence that encoded assignment of subjects to the treatment schedule. Subjects were randomized to one of nine treatment schedules and received placebo + ketamine (regimen A) and two of the following three treatment regimens: 3 mg of TAK-063 + ketamine (regimen B), 30 mg of TAK-063 + ketamine (regimen C), and 300 mg of TAK-063 + ketamine (regimen D). […] Treatment sequences are presented in Online Resource Supplementary Table S1. The study consisted of multiple visits with a different treatment protocol on each visit. The visits were standardized and included a screening period (day − 28 to day − 2), check-in (day − 1), a treatment period (days 1), completion of treatment visit (day 2), and a follow-up visit (day 14 ± 3 days after last TAK-063 dose). After each treatment period, subjects stayed overnight at the study site for observation and were discharged on day 2. Each participant completed the study when they completed the follow-up visit after their last treatment2.
Subjects checked in on day − 1 of each treatment period during which vital signs, electrocardiogram (ECG), and laboratory safety tests were repeated. On day 1 of each treatment period, subjects received a 3-, 10-, or 30-mg TAK-063 dose or placebo tablets. Participants then relaxed, slept, or watched movies while remaining in the research environment. Ketamine (0.12 mg/kg intravenous bolus over 60 s followed by a continuous infusion of 0.31 mg/kg/h over approximately 150 min) was administered 4 h after TAK-063 or placebo (Fig. 1). This ketamine dose was based on a previous study that achieved steady-state concentrations of 75 ng/mL and provided a robust BOLD signal with minimal psychotomimetic symptoms (De Simoni et al. [2013]). […]
Blood samples were collected for the determination of TAK-063 and ketamine concentrations, and ketamine concentrations were used to verify intravenous delivery of ketamine. Blood samples for determination of TAK-063 concentration were collected at pre-dose and at 0.5, 2, 3, 4.5, 6, 8, 10, 12, and 24 h post dose. Blood samples for determination of ketamine concentration were collected at 0.5, 1, 2, and 2.5 h after administration of ketamine. The target ketamine concentration was established at 75 ng/mL. PK samples were not collected from the arm in which ketamine was administered.
This study was not powered for any comparison, and the number of subjects was considered to be suitable for fulfilling study objectives. All statistical tests were two-tailed at α = 0.05 level of significance. For the analysis of the neuroimaging battery test results, effect sizes of > 0.3 were considered potentially meaningful, even without power to detect statistical significance. PK parameters of TAK-063 were generated using WinNonlin Version 6.3. fMRI images were analyzed using SPM8 and Matlab. Percent signal change for resting state data was calculated between pre-ketamine and post-ketamine infusion based on a priori ROIs using SPM’s Anatomy Toolbox (Yurgelun-Todd et al. [2016]). Percent signal change for the working memory task was calculated for the task versus baseline in the post-ketamine condition using the same ROI used for resting state (Yurgelun-Todd et al. [2016]). An analysis of variance (ANOVA) model was used to perform the analyses for BOLD signal changes (Yurgelun-Todd et al. [2016]). Cohen’s d effect sizes were calculated as d=μt^−μp^/sp where d is the effect size and μt^ and μp^ are the least-square means for a TAK-063 dose and placebo regimen, respectively, from the ANOVA model. sp is the pooled standard deviation from both regimens. No adjustments were made for multiple comparisons.

[2] = tested on: healthy male subjects; test: Safety assessments (adverse events, laboratory tests, ECG, vital signs); format: in vivo, human
Description: as §1
AEs, clinical laboratory results, ECG, vital signs, and suicide assessments were recorded after administration of TAK-063 and throughout the remainder of the study. Intensity of AEs was classified as mild, moderate, and severe, and each AE was assessed for association with study drug. AEs were assessed throughout the 2-day study visit, at the three treatment visits, at the study exit, and at the follow-up visit. ECG, vital signs, and clinical laboratory results were assessed at visit 1 during screening, day − 1, day 1 of each treatment period, day 2 of period 3 (study exit), the early termination visit, and the follow-up visit.
In this study, the safety set, used for demographic and safety evaluations, included subjects who receive at least one dose of study medication. The PK set included all subjects in the safety set with at least one available drug concentration measurement. The PD set included all subjects in the safety set and with at least one valid PD assessment.

[3] = all 27 subjects, TAK-063 or placebo followed by ketamine
[4] = all subjects, most frequently reported AEs

In the case of `COc1cn(-c2ccc(-n3cccn3)cc2F)nc(-c2ccnn2-c2ccccc2)c1=O` [TAK-063], the AUC24 ([1]; 3 mg single oral dose) is reported as 111.3 ng·h/mL, the “Average concentration (Cav)” value ([1]; 3 mg single oral dose) is reported as 4.63 ng/mL and the AUC24 ([1]; 10 mg single oral dose) is reported as 549.2 ng·h/mL. For the same compound, the “Average concentration (Cav)” value ([1]; 10 mg single oral dose) was 22.9 ng/mL, the AUC24 ([1]; 30 mg single oral dose) was 1296.3 ng·h/mL and the “Average concentration (Cav)” value ([1]; 30 mg single oral dose) was 53.9 ng/mL. For the same compound, the rate of absorption ([1]; oral administration) was “moderate”, the “Decline of plasma concentrations after Cmax” value ([1]; single oral dose) was “declined in a biphasic manner” and the “EPS-type AE in one subject” value ([2]; 30 mg) was “restlessness”. The “EPS-type AE in one subject” value ([2]; 300 mg) was “muscle tightness and restlessness”, the “discontinuation because of EPS” value ([2]; 300 mg) was “One subject” and the “tolerability of the 300-mg dose” value ([2]; 300 mg, led to change of dose to 10 mg) was “higher than expected rates of dystonia and nausea”. For the same compound, the “subjects with AEs consistent with extrapyramidal symptoms (EPS)” value ([2]; TAK-063 group overall) was 8.0%, the “subjects with AEs consistent with extrapyramidal symptoms (EPS) (number)” value ([2]; TAK-063 group overall) was “two” and the “subjects who experienced AEs related to the study drug” value [2, 3] was 88.9%. The “subjects who experienced AEs related to the study drug (number)” value [2, 3] was 24 subjects, the “severity of drug-related AEs” value ([2]; all subjects) was “mild to moderate” and the fatigue [2, 4] was 25.9%. The nausea [2, 4] was 40.7%, the somnolence [2, 4] was 40.7% and the vomiting [2, 4] was 63.0%. The “clinically significant changes from baseline in vital signs, clinical laboratory tests and 12-lead ECGs” value ([2]; baseline to post dose) was “No changes”, the “deaths or serious AEs” value ([2]; during the study) was “No deaths or serious AEs” and the “participants discontinuing study drug because of AEs” value ([2]; in vivo) was “one”. For the same compound, the “overall safety and tolerability” value ([2]; single oral doses with ketamine) was “safe and well tolerated”.
